Measurements from patent US20220338473A1, “USE OF BENZYL ALCOHOL AS A HERBICIDE” (INNOVI, priority 2019, published 2022).

What was measured:
Test in all cases: Preventative activity (anti-germination), seeds on agar in Petri dish
Format in all cases: in vivo
Settings in all cases: 0.35 g sprayed (benzyl alcohol pure, 700 L/Ha; glyphosate diluted at 0.5%)
Dandelion seeds = tested on: Dandelion seeds
Barley seeds = tested on: Barley seeds
Method: (§1) The assays were carried out on seeds sown on a Petri dish with respectively a control mode, an assay with benzyl alcohol and an assay with glyphosate herbicide (Gallup® super 360, Barclay).
(§2) The application of the product is carried out with a trigger spray bottle which makes it possible to spray 0.35 g of product per spraying, as microdroplets.
(§3) Seeds are placed on an agar gel in Petri dishes. 16 barley seeds, 24 rapeseed seeds, 18 wheat seeds, 10 maize seeds, 10 soybean seeds are positioned for each test.
(§4) The seeds are sprinkled either with 0.35 g water (equivalent 700 L/Ha) including 0.35 g pure benzyl alcohol (PanReac AppliChem—ITW Reagents) (equivalent 700 L/Ha pure benzyl alcohol), or with 0.35 g water for the control, or with 0.35 g glyphosate diluted at 0.5% for the glyphosate test.
(§5) The plants are observed at 0 and 11 days. The percentage of germination is the percentage of germinated seeds evaluated after 11 days.

Soybean seeds = tested on: Soybean seeds
Method: as §1, §2, §3, §4, §5

Rapeseed seeds = tested on: Rapeseed seeds
Method: as §1, §2, §3, §4, §5

Maize seeds = tested on: Maize seeds
Method: as §1, §2, §3, §4, §5

Wheat seeds = tested on: Wheat seeds
Method: as §1, §2, §3, §4, §5

## O=C(O)CNCP(=O)(O)O [Glyphosate, glyphosate, reference compound]
Dandelion seeds
  Percentage of germination at 11 days: 83%
Barley seeds
  Percentage of germination at 11 days: 100%
Soybean seeds
  Percentage of germination at 11 days: 100%
Rapeseed seeds
  Percentage of germination at 11 days: 100%
Maize seeds
  Percentage of germination at 11 days: 100%
Wheat seeds
  Percentage of germination at 11 days: 100%
